Structures are written as SMILES. Where a name gives a salt, the structure may show the parent alone.

One assay concerns HIV wild type (WTRVA). The experiment in a line: HeLa cell assay, wild type virus (WTRVA). The assay is classed as cell-based, HIV-1. The settings on record: HeLa-CD4-LTR-β-gal cells, wild type virus; trifluoroacetate; read-out: WTRVA activity level. On the set-up: scale not given here.
With `N#Cc1cc(Cl)cc(Oc2c(Cl)ccc(CNC(=O)c3[nH]c4ccccc4c3Br)c2F)c1` [Example 54, 3-bromo-N-({4-chloro-3-[(3-chloro-5-cyanophenyl)oxy]-2-fluorophenyl}methyl)-1H-indole-2-carboxamide trifluoroacetate], the IC50 is below 10 nM.

Still in this assay, the particulars now being: Human immunodeficiency virus 1, HeLa, HeLa cell assay; read-out: IC50 against WTRVA.
With `Cc1nc(Cl)c(C(=O)NCc2ccc(Cl)c(Oc3cc(Br)cc(C#N)c3)c2F)[nH]1` [Example 299, N-({3-[(3-bromo-5-cyanophenyl)oxy]-4-chloro-2-fluorophenyl}methyl)-4-chloro-2-methyl-1H-imidazole-5-carboxamide], the IC50 was below 10 nM.
Turning to `N#Cc1cc(Cl)cc(Oc2c(Br)ccc(CNC(=O)c3nc(N)[nH]c3Cl)c2F)c1` [Example 239, 2-amino-N-({4-bromo-3-[(3-chloro-5-cyanophenyl)oxy]-2-fluorophenyl}methyl)-4-chloro-1H-imidazole-5-carboxamide], the IC50 was below 10 nM.
As for `Cc1nc(Br)c(C(=O)NCc2ccc(Br)c(Oc3cc(Cl)cc(C#N)c3)c2F)[nH]1` [Example 233, 4-bromo-N-({4-bromo-3-[(3-chloro-5-cyanophenyl)oxy]-2-fluorophenyl}methyl)-2-methyl-1H-imidazole-5-carboxamide], the IC50 was below 10 nM.
On the same count and under the same terms, with `CC#Cc1cc(C#N)cc(Oc2c(Cl)ccc(CNC(=O)c3[nH]cnc3Cl)c2F)c1` [Example 317, 4-chloro-N-[(4-chloro-3-{[3-cyano-5-(1-propyn-1-yl)phenyl]oxy}-2-fluorophenyl)methyl]-1H-imidazole-5-carboxamide] the figure was below 10 nM.
Same read-out and setting: for `Cc1cc(C#N)cc(Oc2c(Cl)ccc(CNC(=O)c3[nH]c(C)nc3Cl)c2F)n1` [Example 271, 4-Chloro-N-({4-chloro-3-[(4-cyano-6-methyl-2-pyridinyl)oxy]-2-fluorophenyl}methyl)-2-methyl-1H-imidazole-5-carboxamide] the value was below 10 nM.
Consider `N#Cc1cc(Cl)cc(Oc2c(Cl)ccc(CNC(=O)c3[nH]cnc3Br)c2F)c1` [Example 133, 4-bromo-N-({4-chloro-3-[(3-chloro-5-cyanophenyl)oxy]-2-fluorophenyl}methyl)-1H-imidazole-5-carboxamide trifluoroacetate], for which the IC50 is below 10 nM.
Turning to `CCc1cc(C#N)cc(Oc2c(Cl)ccc(CNC(=O)c3[nH]c(C)nc3Cl)c2F)n1` [Example 274, 4-Chloro-N-({4-chloro-3-[(4-cyano-6-ethyl-2-pyridinyl)oxy]-2-fluorophenyl}methyl)-2-methyl-1H-imidazole-5-carboxamide], the IC50 is below 10 nM.
The same measure, in the same setting: for `N#Cc1cc(Br)cc(Oc2c(Cl)ccc(CNC(=O)c3[nH]cnc3Cl)c2F)c1` [Example 150, N-({3-[(3-bromo-5-cyanophenyl)oxy]-4-chloro-2-fluorophenyl}methyl)-4-chloro-1H-imidazole-5-carboxamide] the value was below 10 nM.

Still in this assay, the particulars now being: Human immunodeficiency virus 1, HeLa, HeLa-CD4-LTR-β-gal cells, wild type virus; read-out: WTRVA activity level.
Regarding `COc1ccc2[nH]c3c(c2c1)CCN(Cc1ccc(Cl)c(Oc2cc(Cl)cc(C#N)c2)c1F)C3=O` [Example 38, 3-chloro-5-[(6-chloro-2-fluoro-3-{[6-(methyloxy)-1-oxo-1,3,4,9-tetrahydro-2H-β-carbolin-2-yl]methyl}phenyl)oxy]benzonitrile], the IC50 lay in the range of 10 to 1000 nM.
Same read-out and setting: with `N#Cc1cc(Cl)cc(Oc2c(Cl)ccc(CNC(=O)c3[nH]c(C4CC4)nc3Cl)c2F)c1` [Example 136, 4-chloro-N-({4-chloro-3-[(3-chloro-5-cyanophenyl)oxy]-2-fluorophenyl}methyl)-2-cyclopropyl-1H-imidazole-5-carboxamide trifluoroacetate] the figure was below 10 nM.
On the same count and under the same terms, with `CSc1ncccc1C(=O)NCc1ccc(Cl)c(Oc2cc(Cl)cc(C#N)c2)c1F` [Example 86, N-({4-chloro-3-[(3-chloro-5-cyanophenyl)oxy]-2-fluorophenyl}methyl)-2-(methylthio)-3-pyridinecarboxamide trifluoroacetate] the figure was 10 to 1000 nM.
Take `N#Cc1cc(Cl)cc(Oc2c(Cl)ccc(CNC(=O)c3cccnc3)c2F)c1` [Example 94, N-({4-chloro-3-[(3-chloro-5-cyanophenyl)oxy]-2-fluorophenyl}methyl)-3-pyridinecarboxamide trifluoroacetate]: the IC50 fell in the range of 10 to 1000 nM.
For `COC(=O)c1ccc(C(=O)NCc2ccc(Cl)c(Oc3cc(Cl)cc(C#N)c3)c2)cc1` [Example 11, Methyl 4-{[({4-chloro-3-[(3-chloro-5-cyanophenyl)oxy]phenyl}methyl)amino]carbonyl}benzoate], the IC50 is above 1000 nM.
On to `COc1ccc2c(C(=O)NCc3ccc(Cl)c(Oc4cc(Cl)cc(C#N)c4)c3F)c[nH]c2c1` [Example 18, N-({4-chloro-3-[(3-chloro-5-cyanophenyl)oxy]-2-fluorophenyl}methyl)-6-(methyloxy)-1H-indole-3-carboxamide], for which the IC50 was in the range of 10 to 1000 nM.
Consider `CC(O)CCOc1ccc2[nH]c(C(=O)NCc3ccc(Cl)c(Oc4cc(Cl)cc(C#N)c4)c3F)cc2c1` (centres unmarked) [Example 106, N-({4-chloro-3-[(3-chloro-5-cyanophenyl)oxy]-2-fluorophenyl}methyl)-5-[(3-hydroxybutyl)oxy]-1H-indole-2-carboxamide], for which the IC50 was below 10 nM.
For `N#Cc1cc(Cl)cc(Oc2c(Cl)ccc(CNC(=O)c3cc4cc(NC(=O)c5ccncc5)ccc4[nH]3)c2F)c1` [Example 114, N-({4-chloro-3-[(3-chloro-5-cyanophenyl)oxy]-2-fluorophenyl}methyl)-5-[(4-pyridinylcarbonyl)amino]-1H-indole-2-carboxamide], the IC50 is below 10 nM.
With `N#Cc1cc(Cl)cc(Oc2c(Cl)ccc(CNC(=O)c3cc4ccc(OCc5ccccc5)cc4[nH]3)c2F)c1` [Example 43, N-({4-chloro-3-[(3-chloro-5-cyanophenyl)oxy]-2-fluorophenyl}methyl)-6-[(phenylmethyl)oxy]-1H-indole-2-carboxamide], the IC50 fell in the range of 10 to 1000 nM.
Regarding `N#Cc1cc(Cl)cc(Oc2c(Cl)ccc(CNC(=O)c3cc4ccc(O)cc4[nH]3)c2F)c1` [Example 36, N-({4-chloro-3-[(3-chloro-5-cyanophenyl)oxy]-2-fluorophenyl}methyl)-6-hydroxy-1H-indole-2-carboxamide], the IC50 was below 10 nM.
Still for that read-out and setting: with `CC(=O)c1ccc2cc(C(=O)NCc3ccc(Cl)c(Oc4cc(Cl)cc(C#N)c4)c3F)[nH]c2c1` [Example 78, 6-acetyl-N-({4-chloro-3-[(3-chloro-5-cyanophenyl)oxy]-2-fluorophenyl}methyl)-1H-indole-2-carboxamide trifluoroacetate] the figure was below 10 nM; with `N#Cc1cc(Cl)cc(Oc2c(Cl)ccc(CNC(=O)c3[nH]cnc3Br)c2F)c1` [Example 133, 4-bromo-N-({4-chloro-3-[(3-chloro-5-cyanophenyl)oxy]-2-fluorophenyl}methyl)-1H-imidazole-5-carboxamide trifluoroacetate], below 10 nM; with `N#Cc1cc(Cl)cc(Oc2cc(CNC(=O)c3cc4cc([N+](=O)[O-])ccc4[nH]3)ccc2Cl)c1` [Example 9, N-({4-chloro-3-[(3-chloro-5-cyanophenyl)oxy]phenyl}methyl)-5-nitro-1H-indole-2-carboxamide], above 1000 nM.
The same measure, in the same setting: with `N#Cc1cc(Cl)cc(Oc2c(Cl)ccc(CNC(=O)c3cc4ccccc4[nH]3)c2F)c1` [Example 28, N-({4-chloro-3-[(3-chloro-5-cyanophenyl)oxy]-2-fluorophenyl}methyl)-1H-indole-2-carboxamide] the figure was below 10 nM; with `Cc1nnsc1C(=O)NCc1ccc(Cl)c(Oc2cc(Cl)cc(C#N)c2)c1F` [Example 91, N-({4-chloro-3-[(3-chloro-5-cyanophenyl)oxy]-2-fluorophenyl}methyl)-4-methyl-1,2,3-thiadiazole-5-carboxamide], below 10 nM; with `Cn1ccnc1C(=O)NCc1ccc(Cl)c(Oc2cc(Cl)cc(C#N)c2)c1F` [Example 72, N-({4-chloro-3-[(3-chloro-5-cyanophenyl)oxy]-2-fluorophenyl}methyl)-1-methyl-1H-imidazole-2-carboxamide trifluoroacetate], 10 to 1000 nM.
In the case of `CC(=O)NCc1ccc2cc(C(=O)NCc3ccc(Cl)c(Oc4cc(Cl)cc(C#N)c4)c3F)[nH]c2c1` [Example 74, 6-[(acetylamino)methyl]-N-({4-chloro-3-[(3-chloro-5-cyanophenyl)oxy]-2-fluorophenyl}methyl)-1H-indole-2-carboxamide trifluoroacetate], the IC50 was below 10 nM.
On the same count and under the same terms, for `CSc1ncc(Cl)c(C(=O)NCc2ccc(Cl)c(Oc3cc(Cl)cc(C#N)c3)c2F)n1` [Example 101, 5-chloro-N-({4-chloro-3-[(3-chloro-5-cyanophenyl)oxy]-2-fluorophenyl}methyl)-2-(methylthio)-4-pyrimidinecarboxamide] the value was 10 to 1000 nM; for `N#Cc1cc(Cl)cc(Oc2c(Cl)ccc(CNC(=O)c3cc4cc(Cl)ccc4s3)c2F)c1` [Example 51, 5-chloro-N-({4-chloro-3-[(3-chloro-5-cyanophenyl)oxy]-2-fluorophenyl}methyl)-1-benzothiophene-2-carboxamide trifluoroacetate], above 1000 nM.
Still for that read-out and setting: with `N#Cc1cc(Cl)cc(Oc2c(Cl)ccc(CNC(=O)c3ncc[nH]3)c2F)c1` [Example 59, N-({4-chloro-3-[(3-chloro-5-cyanophenyl)oxy]-2-fluorophenyl}methyl)-1H-imidazole-2-carboxamide trifluoroacetate] the figure was below 10 nM; with `COc1ccc(C(=O)NCc2ccc(Cl)c(Oc3cc(Cl)cc(C#N)c3)c2)c(C)c1` [Example 2, N-({4-chloro-3-[(3-chloro-5-cyanophenyl)oxy]phenyl}methyl)-2-methyl-4-(methyloxy)benzamide], above 1000 nM; with `CCc1c(C(=O)NCc2ccc(Cl)c(Oc3cc(Cl)cc(C#N)c3)c2F)[nH]c2ccc(OC)cc12` [Example 81, N-({4-chloro-3-[(3-chloro-5-cyanophenyl)oxy]-2-fluorophenyl}methyl)-3-ethyl-5-(methyloxy)-1H-indole-2-carboxamide trifluoroacetate], 10 to 1000 nM.
Still for that read-out and setting: for `CC(C)(C)OC(=O)N1CCC[C@H]1C(=O)Nc1ccc2[nH]c(C(=O)NCc3ccc(Cl)c(Oc4cc(Cl)cc(C#N)c4)c3F)cc2c1` [Example 117, 1,1-dimethylethyl (2S)-2-{[(2-{[({4-chloro-3-[(3-chloro-5-cyanophenyl)oxy]-2-fluorophenyl}methyl)amino]carbonyl}-1H-indol-5-yl)amino]carbonyl}-1-pyrrolidinecarboxylate] the value was below 10 nM.

(Values after patent US8304419B2, “Chemical compounds” (priority 2007, dated 2012).)
